# Reference: US5958719A, “Method for the determination of the activity of specific phosphotyrosine phosphatases and specific effectors thereof in intact cells” (Max-Planck Gesellschaft Zur Foderung der Wissenschaften E.V., priority 1995, dated 1999)
# “Also recorded” adds a separate entry of the source.
# How the values were obtained:
# PDGF receptor = PDGF receptor dephosphorylation over time in intact PDGF-stimulated Swiss 3T3 cells after addition of PTK inhibitor; assay type: cell-based, mouse; conditions: AG1296 50 μM added after 5 min PDGF stimulation; intact Swiss 3T3 cells
# Excerpt: (§1) Swiss 3T3 fibroblasts (mouse) express PDGFα and PDGFβ receptors on the cell surface (Hosang et al. (1989)). Stimulation of the cells with PDGF leads to a rapid autophosphorylation of these receptors at tyrosine residues. This autophosphorylation can be detected in immunoblots using anti-phosphotyrosine antibodies after immunoprecipitation of the receptors and can be detected in unfractionated cell lysates. The autophosphorylated receptors are rapidly dephosphorylated by PDGF receptor-directed PTPase(s) (Bohmer et al. (1993)). The identity of the cellular PTPases which catalyse this reaction is not known. […] If the inhibitor is added to cells after activation of the PDGF receptor PTK, the dephosphorylation of the PDGF receptor can be monitored over time. (FIG. 3).
# Swiss 3T3 cells were treated in serum-free medium with PDGF (FIG. 3, lanes 2-6) or the corresponding solvent (FIG. 3, lane 1). After 5 minutes stimulation AG1296 (50 μM, FIG. 3B) or the corresponding solvent (DMSO, FIG. 3 A) was added. The phosphotyrosine content of the PDGF receptor was examined in the cells thus treated at the stated various time points. […] This decrease is caused by the activity of the PDGF receptor-directed PTPase in the intact cells.
# PDGF receptor PTK = assay: Inhibition of PDGF receptor PTK (PDGF-induced receptor autophosphorylation, anti-phosphotyrosine immunoblot) in Swiss 3T3 cells; assay type: cell-based, mouse; conditions: AG1296 50 μM, 2 min preincubation, then PDGF-BB 100 ng/ml 5 min
# Excerpt: as §1
# Confluent, resting Swiss 3T3 cells were incubated as stated for various periods in serum-free cell culture medium without supplements (lanes 1, 2) or with the PDGF receptor PTK inhibitor AG1296 (final concentration 50 μM) (lanes 3-6). Then human recombinant PDGF-BB (final concentration 100 ng/ml) (lanes 2-6) or the corresponding solvent (lane 1) was added and the incubation was continued for 5 minutes.
# [1] = tested on: PDGF receptor-directed PTPase(s); assay: PDGF receptor-directed PTPase activity (dephosphorylation of autophosphorylated PDGF receptor) in isolated Swiss 3T3 cell membranes; assay type: biochemical, mouse; conditions: AG1296 50 μM, 30 min incubation, 10 mM EDTA
# Excerpt: as §1
# Isolated Swiss 3T3 cell membranes (10 μg protein per lane) were treated for 20 minutes on ice with PDGF (2 μg/ml). The activated PDGF receptor PTK was then autophosphorylated by adding 3 mM (final concentration) ATP. The kinase reaction was inhibited by addition of 10 mM EDTA. At the same time AG1296 (50 μM) (B) or the corresponding solvent (DMSO) (A) was added. The phosphotyrosine content of the PDGF receptor was measured in a similar manner to that described in FIG. 1 immediately after addition of the agents (0 min) or after 30 min incubation. […]
# [2] = tested on: PDGF receptor-directed PTPase(s); assay type: cell-based, mouse
# NGF receptor PTK (Trk) = assay: Inhibition of NGF receptor PTK (NGF-induced TrkA autophosphorylation, immunoprecipitation and anti-phosphotyrosine immunoblot) in PC12 cells; assay type: cell-based, rat; conditions: K252a 1 μM, 2 min (short) preincubation, then NGF 150 ng/ml 10 min; PC12 cells overexpressing TrkA
# Excerpt: (§2) PC 12 cells (rat pheochromocytoma cells) which overexpress NGF receptors (Trk A) (Obermeier et al. (1994)) were used for the experiments shown. Stimulation of the cells with NGF leads to a rapid autophosphorylation of these receptors at tyrosine residues. This autophosphorylation can be detected in immunoblots using anti-phosphotyrosine antibodies after immunoprecipitation of the receptors. The identity of the cellular PTPases which dephosphorylate autophosphorylated NGF receptors is not known.
# PC12 cells that overexpress TrkA were incubated as stated for various periods in serum-free cell culture medium without supplements (lanes 1, 2) or with the NGF receptor PTK inhibitor K252a (final concentration 1 μM) (lanes 3-6). Then NGF (final concentration 150 ng/ml) (lanes 2-6) or the corresponding solvent (lane 1) was added and the incubation was continued for 10 minutes.
# NGF receptor PTK = conditions: Ohmichi et al (1992); Tapley et al (1992); cited from earlier work
# NGF receptor = NGF receptor dephosphorylation over time in intact NGF-stimulated TrkA-transfected PC12 cells after addition of PTK inhibitor; assay type: cell-based, rat; conditions: K252a 1 μM added after 10 min NGF stimulation; intact PC12 cells transfected with TrkA
# Excerpt: as §2
# PC12 cells transfected with TrkA were treated in serum-free medium with NGF (lanes 2-6) or the corresponding solvent (lane 1). After a 10 minute stimulation, K252a (1 μM, B) or the corresponding solvent (DMSO, A) was added. At the stated various time points the cells treated correspondingly were tested as described in FIG. 1 and the phosphotyrosine content of the NGF receptors was examined. […] This decrease is caused by the activity of the NGF receptor-directed PTPase in the intact cells.
structure (smiles),measurement,setting,value
COc1cc2ncc(-c3ccccc3)nc2cc1OC [AG1296],phosphotyrosine content of the PDGF receptor over time,PDGF receptor,continuously decreases
same,inhibition of PDGF receptor PTK activity / PDGF-induced receptor autophosphorylation,PDGF receptor PTK,completely inhibits its activity; also recorded: completely suppressed
same,influence on PDGF receptor-directed PTPase activity (dephosphorylation),[1],does not influence the activity of the PTPase(s); also recorded: does not inhibit; also recorded: does not influence this dephosphorylation
CNc1ccc2oc(CC3OC4(CCC3C)OC(C(C)C(=O)c3ccc[nH]3)C(C)CC4C)nc2c1C(=O)O (centres unmarked) [A23187],action on PTPases which specifically dephosphorylate the PDGF receptor,[2],activator
same,Relative PDGF receptor-directed PTPase activity (% of control),"[2]; swiss 3t3 cells, 5 min, 1 µM",161 % of control
COC(=O)C1(O)CC2OC1(C)n1c3ccccc3c3c4c(c5c6ccccc6n2c5c31)C(=O)NC4 (centres unmarked) [K252a],inhibition of Trk receptor PTK activity / NGF-induced receptor autophosphorylation,NGF receptor PTK (Trk),completely inhibits the activity; also recorded: completely suppressed
same,specificity of inhibition of NGF receptor PTK and PTK of other neurotrophin receptors,NGF receptor PTK,specific inhibitor of the NGF receptor PTK
same,phosphotyrosine content of the NGF receptor over time,NGF receptor,very rapid dephosphorylation; also recorded: decreases significantly
